Data on 24 compounds can be found in US20080234262A1 (Wyeth, priority 2007, published 2008).

The structures appear in SMILES notation. Some results are limits rather than exact numbers.

The target in one assay is PI3K (Homo sapiens, UniProt P42336). Kind of assay: Fluorescence polarization assay for PI3K.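 Note: PI3K kinase reaction on PIP2 with ATP, 30-60 min, product sensed by GST-GRP with red probe in fluorescence polarization (mP), controls without enzyme and at zero time.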 Format: biochemical. The following applies: PI3Kα; read-out: PI3Kα IC50.
The next assay relates to prostate line LNCap. Description: In vitro cell culture growth assay (MTS), LNCap. The assay is classed as cell-based, human. Particulars: LNCap cells, three days after drug treatment.
Another assay relates to breast line MDA468. Kind of assay: In vitro cell culture growth assay (MTS), MDA468. The assay is classed as cell-based, human. The following applies: MDA468 cells, three days after drug treatment. The essentials: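 Cells were plated and, one day later, exposed to inhibitors for three days; viable cell density was then measured by metabolic conversion of MTS dye, read as absorbance at 490 nm. Growth is expressed as percent of vehicle-treated control cells on the same plate.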

Sequence of PI3K (P42336 whole entry): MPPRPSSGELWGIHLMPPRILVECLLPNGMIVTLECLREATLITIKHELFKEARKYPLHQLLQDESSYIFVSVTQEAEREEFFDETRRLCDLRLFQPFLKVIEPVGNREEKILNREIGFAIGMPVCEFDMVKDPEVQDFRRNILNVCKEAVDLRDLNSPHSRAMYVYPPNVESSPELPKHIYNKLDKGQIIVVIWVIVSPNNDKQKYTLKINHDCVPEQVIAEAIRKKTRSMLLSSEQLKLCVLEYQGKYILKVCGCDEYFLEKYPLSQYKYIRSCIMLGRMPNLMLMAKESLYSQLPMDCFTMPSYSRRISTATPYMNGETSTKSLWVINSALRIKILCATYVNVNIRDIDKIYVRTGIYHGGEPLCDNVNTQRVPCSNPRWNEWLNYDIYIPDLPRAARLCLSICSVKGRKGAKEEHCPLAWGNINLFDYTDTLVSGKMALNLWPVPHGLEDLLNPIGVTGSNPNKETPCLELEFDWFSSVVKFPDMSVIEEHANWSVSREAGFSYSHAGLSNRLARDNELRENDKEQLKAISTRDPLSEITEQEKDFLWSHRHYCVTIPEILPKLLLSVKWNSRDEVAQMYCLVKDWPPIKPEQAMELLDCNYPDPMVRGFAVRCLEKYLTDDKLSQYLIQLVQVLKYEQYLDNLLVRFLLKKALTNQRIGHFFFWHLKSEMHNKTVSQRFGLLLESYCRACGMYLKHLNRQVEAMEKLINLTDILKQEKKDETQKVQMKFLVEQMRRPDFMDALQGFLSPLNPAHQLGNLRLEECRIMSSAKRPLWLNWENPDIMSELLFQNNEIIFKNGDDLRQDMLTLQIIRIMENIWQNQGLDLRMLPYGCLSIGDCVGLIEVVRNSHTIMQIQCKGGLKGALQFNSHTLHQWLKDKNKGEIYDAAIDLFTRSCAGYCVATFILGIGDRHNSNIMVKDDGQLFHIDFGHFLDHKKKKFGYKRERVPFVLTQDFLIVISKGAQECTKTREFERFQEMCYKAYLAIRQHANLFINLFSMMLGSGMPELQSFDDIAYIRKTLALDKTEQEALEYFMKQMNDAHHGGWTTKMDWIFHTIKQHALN
Sequence of PI3K (P27986 whole entry partner): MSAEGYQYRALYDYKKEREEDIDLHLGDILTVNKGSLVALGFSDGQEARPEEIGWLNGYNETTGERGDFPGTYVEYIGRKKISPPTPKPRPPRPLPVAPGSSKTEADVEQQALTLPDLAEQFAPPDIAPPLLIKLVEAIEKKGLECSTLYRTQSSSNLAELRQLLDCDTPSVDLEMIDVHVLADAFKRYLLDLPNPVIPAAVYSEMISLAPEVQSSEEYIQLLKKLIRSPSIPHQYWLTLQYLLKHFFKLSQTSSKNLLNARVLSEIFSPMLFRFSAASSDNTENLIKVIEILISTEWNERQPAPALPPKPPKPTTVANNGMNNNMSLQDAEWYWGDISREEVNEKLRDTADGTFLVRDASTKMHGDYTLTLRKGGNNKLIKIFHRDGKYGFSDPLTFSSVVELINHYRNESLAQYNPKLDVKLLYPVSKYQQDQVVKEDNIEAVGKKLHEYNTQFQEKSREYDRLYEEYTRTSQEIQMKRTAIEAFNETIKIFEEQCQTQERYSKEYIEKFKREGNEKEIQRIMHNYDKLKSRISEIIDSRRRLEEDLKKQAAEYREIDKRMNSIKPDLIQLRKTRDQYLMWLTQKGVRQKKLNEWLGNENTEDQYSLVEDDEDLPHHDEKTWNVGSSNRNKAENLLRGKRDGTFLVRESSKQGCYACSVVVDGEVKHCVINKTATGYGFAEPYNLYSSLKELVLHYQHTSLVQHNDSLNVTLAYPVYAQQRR

A word on the IC50: it is the concentration at which inhibition is half-maximal. As for `COC(=O)N1CCC(n2ncc3c(N4CCOCC4)nc(-c4ccc(NC(=O)Nc5ccc(F)cc5F)cc4)nc32)CC1` [Compound 861, methyl 4-[6-(4-{[(2,4-difluorophenyl)carbamoyl]amino}phenyl)-4-morpholin-4-yl-1H-pyrazolo[3,4-d]pyrimidin-1-yl]piperidine-1-carboxylate], the IC50 at PI3K came to 250 nM; in the assay with prostate line LNCap (Homo sapiens, LNCaP, 72 h), 110 nM; in the assay on breast line MDA468 (Homo sapiens, 72 h), 580 nM.
As to `O=C(NO)Nc1ccc(-c2nc(N3CCOCC3)c3cnn(C4CCN(C(=O)c5cccnc5)CC4)c3n2)cc1` [Example 305, 1-hydroxy-3-(4-{4-morpholin-4-yl-1-[1-(pyridin-3-ylcarbonyl)piperidin-4-yl]-1H-pyrazolo[3,4-d]pyrimidin-6-yl}phenyl)urea], the IC50 on PI3K is 604 nM; in the assay on prostate line LNCap (Homo sapiens, LNCaP, 72 h) it was 10100 nM; in the assay with breast line MDA468 (Homo sapiens, 72 h) it was 7200 nM.
Turning to `CN(C)C1CCC(n2ncc3c(N4CCOCC4)nc(-c4ccc5[nH]ccc5c4)nc32)CC1` (stereo not drawn) [Compound 150], the IC50 at PI3K is 1950 nM; with prostate line LNCap (Homo sapiens, LNCaP, 72 h) it was 300 nM; with breast line MDA468 (Homo sapiens, 72 h) it was 2100 nM.
For `O=C(Nc1ccc(-c2nc(N3CCOCC3)c3cnn(C4CCN(C(=O)OCCF)CC4)c3n2)cc1)Nc1cccnc1` [Compound 879, 2-fluoroethyl 4-(4-morpholin-4-yl-6-{4-[(pyridin-3-ylcarbamoyl)amino]phenyl}-1H-pyrazolo[3,4-d]pyrimidin-1-yl)piperidine-1-carboxylate], the IC50 on PI3K amounted to 12 nM; with prostate line LNCap (Homo sapiens, LNCaP, 72 h), 3.9 nM; with breast line MDA468 (Homo sapiens, 72 h), 34 nM.
`COC(=O)Nc1ccc(-c2nc(N3CCOCC3)c3cnn(C4CCN(C(=O)c5cccnc5)CC4)c3n2)cc1` [Example 213, methyl (4-{4-morpholin-4-yl-1-[1-(pyridin-3-ylcarbonyl)piperidin-4-yl]-1H-pyrazolo[3,4-d]pyrimidin-6-yl}phenyl)carbamate]: the IC50 on PI3K is 514 nM; in the assay on prostate line LNCap (Homo sapiens, LNCaP, 72 h), 355 nM; with breast line MDA468 (Homo sapiens, 72 h), 1200 nM.
Take `CNC(=O)Nc1ccc(-c2nc(N3CCOCC3)c3cnn(C4CCN(Cc5ccc(Br)nc5)CC4)c3n2)cc1` [Compound 634, 1-[4-(1-{1-[(6-bromopyridin-3-yl)methyl]piperidin-4-yl}-4-morpholin-4-yl-1H-pyrazolo[3,4-d]pyrimidin-6-yl)phenyl]-3-methylurea]: the IC50 on PI3K was 30 nM; in the assay with prostate line LNCap, 27 nM; with breast line MDA468, 80 nM.
On to `CCOC(=O)N1CCC(n2ncc3c(N4CCOC[C@H]4C)nc(-c4ccc(NC(=O)NC)cc4)nc32)CC1` [Compound 888, ethyl 4-(6-{4-[(methylcarbamoyl)amino]phenyl}-4-[(3R)-3-methylmorpholin-4-yl]-1H-pyrazolo[3,4-d]pyrimidin-1-yl)piperidine-1-carboxylate], for which the IC50 at PI3K came to 1990 nM; with prostate line LNCap (Homo sapiens, LNCaP, 72 h) it was 10 nM; in the assay on breast line MDA468 (Homo sapiens, 72 h) it was 220 nM.
As for `O=C1COCCN1c1nc(-c2cccc(O)c2)nc2c1cnn2-c1ccccc1` [Compound 727, 4-[6-(3-hydroxyphenyl)-1-phenyl-1H-pyrazolo[3,4-d]pyrimidin-4-yl]morpholin-3-one], the IC50 was 11000 nM at PI3K; 55000 nM with prostate line LNCap (Homo sapiens, LNCaP, 72 h); more than 60000 nM in the assay on breast line MDA468 (Homo sapiens, 72 h).
As for `O=C(Nc1ccc(-c2nc(N3CCOCC3)c3cnn(C4CCN(C(=O)c5cccnc5)CC4)c3n2)cc1)Nc1cccnc1` [Compound 547, 1-(4-{4-morpholin-4-yl-1-[1-(pyridin-3-ylcarbonyl)piperidin-4-yl]-1H-pyrazolo[3,4-d]pyrimidin-6-yl}phenyl)-3-pyridin-3-ylurea], the IC50 at PI3K turned out to be 32 nM; in the assay on prostate line LNCap (Homo sapiens, LNCaP, 72 h), 200 nM; in the assay on breast line MDA468 (Homo sapiens, 72 h), 27 nM.
In the case of `CCCOC(=O)N1CCC(n2ncc3c(N4CCOCC4)nc(-c4ccc(NC(=O)OC)cc4)nc32)CC1` [Compound 857, propyl 4-(6-{4-[(methoxycarbonyl)amino]phenyl}-4-morpholin-4-yl-1H-pyrazolo[3,4-d]pyrimidin-1-yl)piperidine-1-carboxylate], the IC50 on PI3K worked out at 2770 nM; in the assay on prostate line LNCap (Homo sapiens, LNCaP, 72 h), 1600 nM; with breast line MDA468 (Homo sapiens, 72 h) it was 5000 nM.
Regarding `NC(=O)Nc1ccc(-c2nc(N3CCOCC3)c3cnn(C4CCN(C(=O)c5ccccc5)CC4)c3n2)cc1` [Compound 627, 1-{4-[1-(1-benzoylpiperidin-4-yl)-4-morpholin-4-yl-1H-pyrazolo[3,4-d]pyrimidin-6-yl]phenyl}urea], the values for the IC50 at PI3K, with prostate line LNCap and with breast line MDA468 were 84 nM, 170 nM and 160 nM, respectively.
For `COC(=O)Nc1ccc(-c2nc(N3CCOCC3)c3cnn(C4CCN(CC(=O)c5ccccc5)CC4)c3n2)cc1` [Compound 457, methyl (4-{4-morpholin-4-yl-1-[1-(2-oxo-2-phenylethyl)piperidin-4-yl]-1H-pyrazolo[3,4-d]pyrimidin-6-yl}phenyl)carbamate], the IC50 on PI3K was 585 nM; in the assay with prostate line LNCap (Homo sapiens, LNCaP, 72 h), 500 nM; with breast line MDA468 (Homo sapiens, 72 h), 1800 nM.
`CNC(=O)Nc1ccc(-c2nc(N3CCOCC3)c3cnn(C4CCN(C(=O)COC)CC4)c3n2)cc1` [Example 474, 1-(4-{1-[1-(methoxyacetyl)piperidin-4-yl]-4-morpholin-4-yl-1H-pyrazolo[3,4-d]pyrimidin-6-yl}phenyl)-3-methylurea]: the IC50 at PI3K is 287 nM; in the assay with prostate line LNCap (Homo sapiens, LNCaP, 72 h), 1010 nM; in the assay on breast line MDA468 (Homo sapiens, 72 h), 1400 nM.
Regarding `COC(=O)Nc1ccc(-c2nc(N3CCOCC3)c3cnn(C4CCN(C(=O)OC(C)C)CC4)c3n2)cc1` [Compound 806, isopropyl 4-(6-{4-[(methoxycarbonyl)amino]phenyl}-4-morpholin-4-yl-1H-pyrazolo[3,4-d]pyrimidin-1-yl)piperidine-1-carboxylate], the IC50 was found to be 4550 nM on PI3K; 700 nM in the assay with prostate line LNCap (Homo sapiens, LNCaP, 72 h); 900 nM with breast line MDA468 (Homo sapiens, 72 h).
As to `Nc1ccc(-c2nc(N3CCOCC3)c3cnn(C4CCN(Cc5ccccc5)CC4)c3n2)cc1F` [Compound 594, 4-[1-(1-benzylpiperidin-4-yl)-4-morpholin-4-yl-1H-pyrazolo[3,4-d]pyrimidin-6-yl]-2-fluoroaniline], the IC50 was determined as 1650 nM on PI3K; 2000 nM in the assay with prostate line LNCap (Homo sapiens, LNCaP, 72 h); 4000 nM with breast line MDA468 (Homo sapiens, 72 h).
With `CNC(=O)Nc1ccc(-c2nc(N3CCOCC3)c3cnn(C4CCN(C(=O)c5ccccc5OC)CC4)c3n2)cc1` [Example 365, 1-(4-{1-[1-(2-methoxybenzoyl)piperidin-4-yl]-4-morpholin-4-yl-1H-pyrazolo[3,4-d]pyrimidin-6-yl}phenyl)-3-methylurea], the IC50 was found to be 82 nM on PI3K; 27 nM in the assay with prostate line LNCap (Homo sapiens, LNCaP, 72 h); 300 nM with breast line MDA468 (Homo sapiens, 72 h).
For `O=C(Nc1ccc(-c2nc(N3CCOCC3)c3cnn(C4CCN(C(=O)c5cccnc5)CC4)c3n2)cc1)Nc1cccs1` [Compound 657, 1-(4-{4-morpholin-4-yl-1-[1-(pyridin-3-ylcarbonyl)piperidin-4-yl]-1H-pyrazolo[3,4-d]pyrimidin-6-yl}phenyl)-3-(2-thienyl)urea], the IC50 at PI3K turned out to be 14 nM; in the assay with prostate line LNCap, 35 nM; with breast line MDA468 (Homo sapiens, 72 h), 40 nM.
Take `CNC(=O)Nc1ccc(-c2nc(N3CCOCC3)c3cnn(C4CCN(C(=O)N(C)C)CC4)c3n2)cc1` [Example 473, N,N-dimethyl-4-(6-{4-[(methylcarbamoyl)amino]phenyl}-4-morpholin-4-yl-1H-pyrazolo[3,4-d]pyrimidin-1-yl)piperidine-1-carboxamide]: the IC50 on PI3K is 209 nM; in the assay with prostate line LNCap (Homo sapiens, LNCaP, 72 h) it was 200 nM; in the assay with breast line MDA468 (Homo sapiens, 72 h), 500 nM.
For `Nc1ccnc(-c2nc(N3CCOCC3)c3cnn(C4CCN(C(=O)c5cccnc5)CC4)c3n2)c1` [Compound 434, 2-{4-morpholin-4-yl-1-[1-(pyridin-3-ylcarbonyl)piperidin-4-yl]-1H-pyrazolo[3,4-d]pyrimidin-6-yl}pyridin-4-amine] the same measures were 6660 nM, 39000 nM and 60000 nM.
In the same order, the values of `CNC(=O)Nc1ccc(-c2nc(N3CCOCC3)c3cnn(C4CCN(C(=O)Nc5cccnc5)CC4)c3n2)cc1` [Compound 579, 4-(6-{4-[(methylcarbamoyl)amino]phenyl}-4-morpholin-4-yl-1H-pyrazolo[3,4-d]pyrimidin-1-yl)-N-pyridin-3-ylpiperidine-1-carboxamide] are 30 nM, 3000 nM and 2500 nM.
`C[C@@H]1COCCN1c1nc(-c2cccc(O)c2)nc2c1cnn2-c1ccccc1` [Compound 942, 3-{4-[(3R)-3-methylmorpholin-4-yl]-1-phenyl-1H-pyrazolo[3,4-d]pyrimidin-6-yl}phenol]: the IC50 on PI3K is 1390 nM; in the assay on prostate line LNCap (Homo sapiens, LNCaP, 72 h), 2800 nM; with breast line MDA468 (Homo sapiens, 72 h) it was 10200 nM.
As for `CCOC(=O)N1CCC(n2ncc3c(N4CCOCC4)nc(-c4ccc(NC(=O)NC5CC5)cc4)nc32)CC1` [Compound 821, ethyl 4-(6-{4-[(cyclopropylcarbamoyl)amino]phenyl}-4-morpholin-4-yl-1H-pyrazolo[3,4-d]pyrimidin-1-yl)piperidine-1-carboxylate], the IC50 on PI3K was 1120 nM; in the assay with prostate line LNCap (Homo sapiens, LNCaP, 72 h), less than 27 nM; in the assay on breast line MDA468 (Homo sapiens, 72 h), 140 nM.
For `CCOC(=O)N1CCC(n2ncc3c(N4CCOC[C@@H]4C)nc(-c4ccc(NC(=O)Nc5ccccc5)cc4)nc32)CC1` [Compound 896, ethyl 4-(4-[(3S)-3-methylmorpholin-4-yl]-6-{4-[(phenylcarbamoyl)amino]phenyl}-1H-pyrazolo[3,4-d]pyrimidin-1-yl)piperidine-1-carboxylate], the IC50 on PI3K amounted to 19 nM; in the assay with prostate line LNCap (Homo sapiens, LNCaP, 72 h), 150 nM; in the assay on breast line MDA468 (Homo sapiens, 72 h) it was 800 nM.
In the same order, the values of `O=C(c1ccccn1)N1CCC(n2ncc3c(N4CCOCC4)nc(-c4ccc5[nH]ccc5c4)nc32)CC1` [Example 51] are 1100 nM, 340 nM and 1700 nM.
